Data reported in US20210395210A1, “INHIBITION OF BACTERIAL CHAPERONIN SYSTEMS” (THE TRUSTEES OF INDIANA UNIVERSITY, priority 2018, published 2021).

Key:
native Rho (rhodanese) = target: T1, native Rho (rhodanese) (Bos taurus, UniProt P00586); experiment: Counter-screen for inhibition of native rhodanese enzymatic activity; format: biochemical; details: for IC50: read-out: Biochemical Assay IC50 Native Rho Reporter; for log(IC50) Native Rho Reporter: log of IC50 (μM scale), with standard deviation
T1 construct: purchased Roche (so in the source) R1756
T1 sequence (P00586 1-297): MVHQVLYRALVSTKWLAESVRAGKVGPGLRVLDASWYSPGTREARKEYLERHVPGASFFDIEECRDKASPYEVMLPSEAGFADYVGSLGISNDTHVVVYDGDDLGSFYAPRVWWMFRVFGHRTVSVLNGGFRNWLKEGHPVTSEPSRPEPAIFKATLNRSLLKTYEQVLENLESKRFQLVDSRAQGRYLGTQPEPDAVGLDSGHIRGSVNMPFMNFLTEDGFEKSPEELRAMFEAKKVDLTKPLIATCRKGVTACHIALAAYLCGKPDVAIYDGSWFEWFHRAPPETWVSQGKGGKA
Experimental: Reagent Preparations & Assay Protocol: Reagents were identical to those used in the GroEUES-dRho refolding assay described above; however, the assay protocol differed in the sequence of compound addition to the wells. Compounds were pin-transferred after the 60 minute incubation for the refolding cycle, but prior to the addition of the thiocyanate enzymatic assay stock. Thus, the refolding reactions were allowed to proceed for 60 min at 37° C. in the absence of test compounds, but the enzymatic activity of the refolded rhodanese reporter enzyme was monitored in the presence of test compounds (inhibitor concentration range during the enzymatic reporter reaction is 100 µM to 46 nM-3-fold dilutions). IC50 values for the rhodenase reporter enzyme were determined as described above. Results presented represent the averages of IC50 values obtained from at least quadriplicate (duplicate of duplicate) replicates.

in vitro = details: human
Experimental: HEK 293 cells were maintained in MEM medium (Corning Cellgro, 10-009 CV) supplemented with 10% FBS (Sigma, F2242). […] Cells at 80% confluence were harvested and diluted in growth medium, then 45 μL of the THLE-3 cells (1,500 cells/well) or HEK 293 cells (1,500 cells/well) were dispensed per well, and plates were sealed with “Breathe Easy” oxygen permeable membranes (Diversified Biotech) and incubated at 37° C., 5% CO2, for 24 h.

E. coli GroEL/ES = target: T2, E. coli GroEL/ES (Escherichia coli, UniProt P0A6F5); experiment: GroEL/ES-mediated dRho refolding assay; format: biochemical; details: for log(IC50) GroEL/ES-dRho Refolding: log of IC50 (μM scale), with standard deviation
T2 construct: made in house; host or cells: GroEL in E. coli DH5α; GroES in E. coli BL21 (DE3)
T2 sequence (P0A6F5 2-548): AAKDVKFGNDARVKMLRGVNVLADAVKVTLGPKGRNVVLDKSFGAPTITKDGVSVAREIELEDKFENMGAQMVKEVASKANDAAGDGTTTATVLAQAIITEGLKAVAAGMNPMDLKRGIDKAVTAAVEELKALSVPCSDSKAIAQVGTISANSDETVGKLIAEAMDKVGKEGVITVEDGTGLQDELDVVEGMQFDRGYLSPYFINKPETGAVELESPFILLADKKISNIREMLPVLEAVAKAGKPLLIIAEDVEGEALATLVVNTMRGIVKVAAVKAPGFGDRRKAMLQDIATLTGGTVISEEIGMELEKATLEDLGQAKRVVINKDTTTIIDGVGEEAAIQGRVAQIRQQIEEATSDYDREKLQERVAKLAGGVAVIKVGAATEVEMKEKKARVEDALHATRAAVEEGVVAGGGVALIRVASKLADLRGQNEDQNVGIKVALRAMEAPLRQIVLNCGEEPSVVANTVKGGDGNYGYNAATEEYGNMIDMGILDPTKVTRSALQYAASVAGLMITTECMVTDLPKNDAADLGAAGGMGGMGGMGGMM
Experimental: Reagent preparation: For this assay, five primary reagent stocks were prepared: 1) GroEUES-dRho binary complex stock; 2) ATP initiation stock; 3) thiocyanate enzymatic assay stock; 4) formaldehyde quench stock; 5) ferric nitrate reporter stock. Denatured rhodanese (dRho) was prepared by 3-fold dilution of rhodanese (Roche product #R1756, diluted to 10 mg/mL with H2O) with denaturant buffer (12 M Urea, 50 mM Tris-HCl, pH 7.4, and 10 mM DTT). Rhodanese was completely denatured by incubating at room temperature for 45 min. The binary complex solution was prepared by slowly adding the dRho stock to a stirring stock of concentrated GroEL in modified folding buffer (50 mM Tris-HCl, pH 7.4, 50 mM KCl, 10 mM MgCl2, 5 mM Na2S2O3, and 1 mM DTT). The solution was centrifuged at 16,000×g for 5 minutes, and the supernatant was collected and added to a solution of GroES in modified folding buffer to give final protein concentrations of 100 nM GroEL, 120 nM GroES, and 80 nM dRho. The binary complex stock was prepared immediately prior to use. For the ATP initiation stock, ATP solid was diluted into modified folding buffer to a final concentration of 2.0 mM. The thiocyanate enzymatic assay stock was prepared to contain 70 mM KH2PO4, 80 mM KCN, and 80 mM Na2S2O3 in water. The formaldehyde quench solution contained 30% formaldehyde in water. The ferric nitrate reporter stock contained 8.5% w/v Fe(NO3)3 and 11.3% v/v HNO3 in water.
Assay Protocol: First, 10 μL aliquots of the GroEL/ES-dRho complex stock were dispensed into clear, 384-well polystyrene plates. […] The chaperonin-mediated refolding cycle was initiated by addition of 10 μL of ATP stock (reagent concentrations during refolding cycle: 50 nM GroEL, 60 nM GroES, 40 nM dRho, 1 mM ATP, and compounds of 250 μM to 114 nM, 3-fold dilution series). After incubating for 45 minutes at 37° C. for the refolding cycle, 30 μL of the thiocyanate enzymatic assay stock was added and incubated for 60 min at R.T. for the refolded rhodenase enzymatic reporter reaction. The reporter reaction was quenched by adding 10 μL of the formaldehyde quench stock, and then 40 μL of the ferric nitrate reporter stock was added to quantify the amount of thiocyanate produced during the enzymatic reporter reaction, which is proportional to the amount of dRho refolded by GroEL/ES. After incubating at R.T. for 15 min, the absorbance by Fe(SCN)3 was measured at 460 nm using a Molecular Devices SpectraMax Plus384 microplate reader. A second set of baseline control plates were prepared analogously, but without GroEL/ES-dRho protein binary solution, to correct for possible interference from compound absorbance or turbidity. […] Results presented represent the averages of IC50 values obtained from at least quadriplicate (duplicate of duplicate) replicates.
After generating the compound library, we next employed a series of well-established biochemical assays to evaluate compound inhibitory effects against the GroEUES chaperonin system (See FIG. 6 and FIG. 7). We used E. coli GroEUES as the surrogate chaperonin system for refolding of the reporter enzymes malate dehydrogenase (MDH) and rhodanese (Rho). Briefly, binary complexes are formed between GroEL and denatured MDH or Rho, which are then refolded to their native states upon addition of ATP and the GroES co-chaperonin. Enzymatic activities of refolded native MDH or Rho act as coupled reporters of GroEUES refolding functions since in the presence of chaperonin inhibitors, no functional reporter enzymes are generated.

Structure (SMILES) | IC50 (native Rho (rhodanese)) [µM] | CC50 at 48 h (in vitro) [µM] | IC50 (E. coli GroEL/ES) [µM] | log(IC50) Native Rho Reporter (native Rho (rhodanese)) | log(IC50) GroEL/ES-dRho Refolding (E. coli GroEL/ES)
COc1ccccc1C(=O)Nc1ccc(Sc2nc3ccccc3s2)c(Cl)c1 [Compound 32, N-(4-(Benzo[d]thiazol-2-ylthio)-3-chlorophenyl)-2-methoxybenzamide] | > 100 | > 100 | > 100 |  | 
COc1ccccc1C(=O)Nc1ccc(Sc2nc3ccccc3s2)cc1 [Compound 36, N-(4-(Benzo[d]thiazol-2-ylthio)phenyl)-2-methoxybenzamide] | > 100 | > 100 | > 100 |  | 
O=C(Nc1cccc(Cl)c1)c1ccccc1 [Compound 25, N-(3-Chlorophenyl)benzamide] | > 100 | > 100 | > 100 | >2 | >2
COc1c(Br)cccc1C(=O)Nc1ccccc1 [Compound 42, 3-Bromo-2-methoxy-N-phenylbenzamide] | > 100 | > 100 | > 100 | >2 | >2
